The supplement of paper PMC11061612

What was measured:
Assay in all cases: Bliss excess, mean over the matrix (fraction); higher = more synergy
[1] = tested on: VMRC-RCZ (Kidney Carcinoma)
How it was run: (§1)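 Bliss excess equals the observed combination effect minus the expected value EA + EB − EA·EB, where EA and EB are the effects of each agent alone. Combination Emax is the second-highest inhibition within the matrix. Inhibition was scaled from CellTiter-Glo 2.0 luminescence, with 0 set by vehicle wells and 1 by blank wells, after 72 hours of two-drug dosing of cells plated in 1536-well plates.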

M059J (Glioblastoma) = tested on: M059J (Glioblastoma)
How it was run: as §1

[2] = tested on: NCI-H3122 (Lung Adenocarcinoma)
How it was run: as §1

NCI-H2731 (Mesothelioma) = tested on: NCI-H2731 (Mesothelioma)
How it was run: as §1

[3] = tested on: KP-3 (Pancreatic Carcinoma)
How it was run: as §1

[4] = tested on: MOG-G-CCM (Low Grade Glioma)
How it was run: as §1

[5] = tested on: NCI-H520 (Squamous Cell Lung Carcinoma)
How it was run: as §1

[6] = tested on: SK-GT-4 (Esophageal Adenocarcinoma)
How it was run: as §1

SJSA-1 (Osteosarcoma) = tested on: SJSA-1 (Osteosarcoma)
How it was run: as §1

[7] = tested on: DMS-114 (Small Cell Lung Carcinoma)
How it was run: as §1

[8] = tested on: ST486 (Burkitt's Lymphoma)
How it was run: as §1

[9] = tested on: CW-2 (Colorectal Carcinoma)
How it was run: as §1

[10] = tested on: NCCIT (Other Solid Carcinomas)
How it was run: as §1

[11] = tested on: T-T (Esophageal Squamous Cell Carcinoma)
How it was run: as §1

[12] = tested on: COR-L279 (Small Cell Lung Carcinoma)
How it was run: as §1

[13] = tested on: NCI-H929 (Plasma Cell Myeloma)
How it was run: as §1

[14] = tested on: KYSE-270 (Esophageal Squamous Cell Carcinoma)
How it was run: as §1

[15] = tested on: NCI-H526 (Small Cell Lung Carcinoma)
How it was run: as §1

[16] = tested on: MN-60 (B-Lymphoblastic Leukemia)
How it was run: as §1

[17] = tested on: KU812 (Chronic Myelogenous Leukemia)
How it was run: as §1

| Structure (SMILES) | Bliss excess [1] | Bliss excess (M059J (Glioblastoma)) | Bliss excess [2] | Bliss excess (NCI-H2731 (Mesothelioma)) | Bliss excess [3] | Bliss excess [4] | Bliss excess [5] | Bliss excess [6] | Bliss excess (SJSA-1 (Osteosarcoma)) | Bliss excess [7] | Bliss excess [8] | Bliss excess [9] | Bliss excess [10] | Bliss excess [11] | Bliss excess [12] | Bliss excess [13] | Bliss excess [14] | Bliss excess [15] | Bliss excess [16] | Bliss excess [17] |
| --- | --- | --- | --- | --- | --- | --- | --- | --- | --- | --- | --- | --- | --- | --- | --- | --- | --- | --- | --- | --- |
| C=CCn1c(=O)c2cnc(Nc3ccc(N4CCN(C)CC4)cc3)nc2n1-c1cccc(C(C)(C)O)n1 [AZD1775] + CCc1c2c(nc3ccc(O)cc13)-c1cc3c(c(=O)n1C2)COC(=O)[C@]3(O)CC [SN-38] (first compound max 1 µM, partner max 0.3 µM) | -0.0623 | 0.0051 | -0.0233 | -0.0744 | -0.067 | -0.053 | -0.0637 | 0.0211 | -0.0742 | -0.0439 | -0.0359 | -0.0515 | -0.0342 | -0.031 | -0.0425 | -0.0303 | 0.0029 | -0.0476 | -0.0244 | -0.0318 |
| CN(CCO)CC[C@H](CSc1ccccc1)Nc1ccc(S(=O)(=O)NC(=O)c2ccc(N3CCC([C@@H](O)c4ccccc4-c4ccc(Cl)cc4)CC3)cc2)cc1S(=O)(=O)C(F)(F)F [AZD4320] + CS(=O)(=O)CCNCc1ccc(-c2ccc3ncnc(Nc4ccc(OCc5cccc(F)c5)c(Cl)c4)c3c2)o1 [Lapatinib] (first compound max 1 µM, 7x7, partner max 10 µM) | -0.0072 | 0.0681 | 0.0006 | -0.0076 | -0.0588 | -0.0278 | -0.0382 | 0.0451 | -0.085 | 0.0146 | 0.0668 | -0.0322 | 0.0212 | -0.0055 | 0.0862 | 0.0248 | -0.0254 | 0.0898 | -0.0716 | 0.0801 |
| Cc1c2c(nn1C)CSCc1cc(n(C)n1)CSc1cc(c3ccccc3c1)OCCCc1c(C(=O)O)n(C)c3c-2c(Cl)ccc13 [AZD5991] + CC(=O)O[C@H]1C(=O)[C@@]2(C)[C@H]([C@H](OC(=O)c3ccccc3)[C@]3(O)C[C@H](OC(=O)[C@H](O)[C@@H](NC(=O)c4ccccc4)c4ccccc4)C(C)=C1C3(C)C)[C@]1(OC(C)=O)CO[C@@H]1C[C@@H]2O [Paclitaxel] (first compound max 1 µM, 7x7, partner max 3 µM) | -0.0234 | -0.0193 | -0.0003 | 0.0237 | -0.0622 | 0.0341 | -0.0478 | -0.0197 | -0.0168 | 0.0975 | -0.0046 | -0.0199 | 0.0449 | -0.0016 | 0.0035 | -0.0219 | -0.0116 | 0.0061 | -0.0293 | -0.108 |
| Cc1c2c(nn1C)CSCc1cc(n(C)n1)CSc1cc(c3ccccc3c1)OCCCc1c(C(=O)O)n(C)c3c-2c(Cl)ccc13 [AZD5991] + CS(=O)(=O)CCNCc1ccc(-c2ccc3ncnc(Nc4ccc(OCc5cccc(F)c5)c(Cl)c4)c3c2)o1 [Lapatinib] (first compound max 1 µM, 7x7, partner max 10 µM) | -0.0195 | -0.0103 | -0.0164 | 0.0234 | -0.003 | -0.0322 | 0.0111 | 0.0391 | -0.0115 | -0.0358 | -0.0655 | 0.0142 | -0.0119 | 0.0522 | -0.0053 | -0.0113 | 0.016 | 0.0226 | -0.0584 | -0.0005 |
| C[C@@H]1COCCN1c1cc(C2([S@](C)(=N)=O)CC2)nc(-c2ccnc3[nH]ccc23)n1 [AZD6738] + C1CC(C1)(C(=O)[O-])C(=O)[O-].N.N.[Pt+2] [Carboplatin] (first compound max 10 µM, 7x7, partner max 10 µM) | -0.0249 | -0.0647 | -0.0999 | -0.0109 | -0.0087 | -0.0204 | -0.0017 | -0.0516 | -0.0152 | -0.095 | -0.0501 | -0.0212 | -0.0274 | -0.0661 | -0.0178 | -0.0536 | 0.0445 | -0.0076 | -0.119 | -0.0691 |
| Cc1cc2ncnn2cc1Nc1ncc2c(n1)n(C1CCOCC1)c(=O)n2C [AZD7648] + COc1cc([C@@H]2c3cc4c(cc3[C@@H](O[C@@H]3O[C@@H]5CO[C@@H](C)O[C@H]5[C@H](O)[C@H]3O)[C@H]3COC(=O)[C@H]23)OCO4)cc(OC)c1O [Etoposide] (first compound max 10 µM, 7x7, partner max 10 µM) | 0.0743 | 0.003 | 0.0903 | 0.08 | -0.0136 | 0.106 | 0.0639 | 0.0096 | 0.0316 | 0.0198 | 0.0989 | 0.0573 | 0.0365 | 0.0254 | 0.149 | 0.033 | 0.0627 | 0.121 | 0.06 | 0.035 |
| C[C@@H](Nc1cc(F)cc(F)c1)c1cc(C(=O)N(C)C)cc2c(=O)cc(N3CCOCC3)oc12 [AZD8186] + C1CN(CCC1(C(=O)N[C@@H](CCO)C2=CC=C(C=C2)Cl)N)C3=NC=NC4=C3C=CN4 [AZD5363] (first compound max 10 µM, 7x7, partner max 10 µM) | -0.0134 | -0.0145 | 0.0211 | -0.0476 | -0.0207 | -0.058 | -0.034 | -0.0478 | -0.0208 | 0.0545 | -0.0265 | -0.0086 | 0.0368 | 0.0073 | 0.0622 | -0.0035 | 0.0302 | -0.0238 | -0.0655 | -0.053 |
| C[C@@H](Nc1cc(F)cc(F)c1)c1cc(C(=O)N(C)C)cc2c(=O)cc(N3CCOCC3)oc12 [AZD8186] + CC(=O)c1c(C)c2cnc(Nc3ccc(N4CCNCC4)cn3)nc2n(C2CCCC2)c1=O [Palbociclib] (first compound max 10 µM, 7x7, partner max 10 µM) | 0.12 | -0.006 | 0.0528 | -0.0036 | 0.0123 | 0.0077 | 0.111 | -0.0649 | -0.0268 | 0.0178 | 0.0478 | 0.0464 | 0.0183 | 0.0135 | 0.147 | -0.0272 | -0.0036 | -0.0207 | -0.0082 | 0.0412 |
| C[C@@H](Oc1cc(-c2cnn(C3CCNCC3)c2)cnc1N)c1c(Cl)ccc(F)c1Cl [Crizotinib] + CC1=C(C(=CC=C1)Cl)NC(=O)C2=CN=C(S2)NC3=CC(=NC(=N3)C)N4CCN(CC4)CCO [Dasatinib] (first compound max 10 µM, 7x7, partner max 2 µM) | 0.0518 | 0.024 | -0.0882 | 0.0443 | -0.057 | 0.0574 | 0.0375 | 0.0033 | -0.0238 | -0.0562 | 0.0506 | -0.0315 | -0.0416 | 0.0322 | 0.0599 | -0.0147 | 0.0481 | -0.0339 | -0.0074 | 0.0121 |
| C[C@@H](Oc1cc(-c2cnn(C3CCNCC3)c2)cnc1N)c1c(Cl)ccc(F)c1Cl [Crizotinib] + Cn1cnc2c(F)c(Nc3ccc(Br)cc3Cl)c(C(=O)NOCCO)cc21 [Selumetinib] (first compound max 10 µM, 7x7, partner max 10 µM) | -0.0338 | -0.0562 | -0.0479 | -0.0382 | -0.0229 | -0.0423 | -0.0779 | -0.0405 | 0.0262 | -0.0814 | -0.0819 | -0.0423 | -0.0503 | 0.0159 | -0.0192 | -0.0421 | 0.0039 | -0.0142 | -0.0797 | -0.0466 |
| O=C(c1cc(Cc2n[nH]c(=O)c3ccccc23)ccc1F)N1CCN(C(=O)C2CC2)CC1 [Olaparib] + CC1(C)CCC(CN2CCN(c3ccc(C(=O)NS(=O)(=O)c4ccc(NCC5CCOCC5)c([N+](=O)[O-])c4)c(Oc4cnc5[nH]ccc5c4)c3)CC2)=C(c2ccc(Cl)cc2)C1 [Venetoclax] (first compound max 10 µM, 7x7, partner max 1 µM) | -0.052 | -0.0001 | -0.0681 | -0.047 | -0.0562 | -0.0459 | -0.0201 | -0.056 | -0.0375 | -0.0446 | -0.0134 | -0.0299 | 0.0127 | -0.0375 | 0.0109 | -0.0036 | -0.0027 | 0.0372 | -0.0502 | -0.0241 |
| O=C(c1cc(Cc2n[nH]c(=O)c3ccccc23)ccc1F)N1CCN(C(=O)C2CC2)CC1 [Olaparib] + CN(CC[C@H](CSC1=CC=CC=C1)NC2=C(C=C(C=C2)S(=O)(=O)NC(=O)C3=CC=C(C=C3)N4CCC(CC4)[C@H](C5=CC=CC=C5C6=CC=C(C=C6)Cl)O)S(=O)(=O)C(F)(F)F)CCO [AZD4320] (first compound max 10 µM, 7x7, partner max 1 µM) | -0.064 | -0.0174 | -0.0184 | -0.0491 | -0.0422 | -0.0282 | -0.0283 | -0.0508 | -0.0509 | -0.0971 | -0.0192 | -0.0353 | -0.0075 | -0.0174 | 0.0282 | -0.0336 | -0.0221 | 0.0311 | -0.044 | -0.0517 |
| O=C(c1cc(Cc2n[nH]c(=O)c3ccccc23)ccc1F)N1CCN(C(=O)C2CC2)CC1 [Olaparib] + COc1nnc2ccc(N3CCC(c4ccc(OCCN5CCN(C)C(=O)[C@H]5C)cc4)CC3)nn12 [AZD5153] (first compound max 10 µM, 7x7, partner max 1 µM) | -0.0243 | -0.0672 | -0.0021 | -0.0208 | -0.0554 | -0.0569 | -0.0134 | -0.0894 | -0.0323 | -0.13 | -0.0433 | -0.0592 | -0.0739 | -0.0283 | 0.0327 | -0.0516 | 0.0235 | -0.0689 | -0.0721 | -0.0778 |
| N#Cc1cnc(Nc2cc(NC[C@H]3CNCCO3)c(C(F)(F)F)cn2)cn1 [SRA737] + O=c1[nH]cc(F)c(=O)[nH]1 [5-Fluorouracil] (first compound max 10 µM, 7x7, partner max 20 µM) | -0.0163 | 0.0052 | 0.0315 | -0.0374 | – | -0.001 | -0.0306 | -0.0187 | 0.0126 | -0.0757 | 0.0098 | 0.0039 | -0.0561 | 0.0483 | 0.077 | 0.0184 | 0.127 | 0.0854 | -0.0751 | -0.0726 |
